Test results: ChEMBL document CHEMBL4028801, “A multifactorial approach to hepatobiliary transporter assessment enables improved therapeutic compound development” (Toxicol Sci, 2013)
Where a name gives a salt, the structure may show the parent alone.

What was measured:
[1] = target: Bile salt export pump (Homo sapiens, UniProt O95342); assay: Inhibition of human BSEP overexpressed in Sf9 cell membrane vesicles assessed as uptake of [3H]-taurocholate in presence of ATP measured after 15 to 20 mins by membrane vesicle transport assay; format: ADME, cell-based
Chain of Bile salt export pump (O95342 whole entry): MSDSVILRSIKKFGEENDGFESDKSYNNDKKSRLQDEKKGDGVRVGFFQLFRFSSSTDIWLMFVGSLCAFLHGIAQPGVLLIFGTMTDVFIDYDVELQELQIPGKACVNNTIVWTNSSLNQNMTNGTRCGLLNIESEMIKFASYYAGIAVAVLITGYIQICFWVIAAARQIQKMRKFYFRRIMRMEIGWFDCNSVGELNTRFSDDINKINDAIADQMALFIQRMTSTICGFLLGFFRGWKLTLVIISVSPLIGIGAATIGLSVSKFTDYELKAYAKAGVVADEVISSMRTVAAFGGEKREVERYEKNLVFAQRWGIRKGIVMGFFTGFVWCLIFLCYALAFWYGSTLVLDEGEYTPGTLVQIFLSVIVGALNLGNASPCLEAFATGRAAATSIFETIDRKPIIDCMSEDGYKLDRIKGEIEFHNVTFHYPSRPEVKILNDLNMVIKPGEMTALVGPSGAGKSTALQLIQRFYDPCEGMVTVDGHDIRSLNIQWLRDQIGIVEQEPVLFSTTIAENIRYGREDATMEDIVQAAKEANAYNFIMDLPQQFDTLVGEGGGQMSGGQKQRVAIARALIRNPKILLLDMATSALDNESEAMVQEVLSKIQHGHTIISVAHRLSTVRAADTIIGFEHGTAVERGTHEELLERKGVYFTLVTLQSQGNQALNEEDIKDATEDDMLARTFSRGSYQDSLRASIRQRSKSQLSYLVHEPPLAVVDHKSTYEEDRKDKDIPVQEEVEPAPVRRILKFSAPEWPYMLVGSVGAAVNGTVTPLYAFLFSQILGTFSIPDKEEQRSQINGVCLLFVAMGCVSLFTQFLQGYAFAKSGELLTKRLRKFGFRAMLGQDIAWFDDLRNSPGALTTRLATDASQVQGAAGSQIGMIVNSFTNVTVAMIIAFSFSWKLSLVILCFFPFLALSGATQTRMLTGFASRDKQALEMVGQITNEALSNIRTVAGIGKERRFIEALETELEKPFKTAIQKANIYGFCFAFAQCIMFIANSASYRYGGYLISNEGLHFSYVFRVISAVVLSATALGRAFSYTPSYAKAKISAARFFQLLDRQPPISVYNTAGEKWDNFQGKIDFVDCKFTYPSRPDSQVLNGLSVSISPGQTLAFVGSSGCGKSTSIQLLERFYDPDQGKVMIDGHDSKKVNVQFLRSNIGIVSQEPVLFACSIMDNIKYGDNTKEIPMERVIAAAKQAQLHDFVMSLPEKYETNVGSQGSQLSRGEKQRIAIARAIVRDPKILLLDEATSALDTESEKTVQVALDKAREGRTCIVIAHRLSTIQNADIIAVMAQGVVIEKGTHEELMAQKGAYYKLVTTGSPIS

[2] = target: ATP-binding cassette sub-family C member 2 (Homo sapiens, UniProt Q92887); assay: Inhibition of human MRP2 overexpressed in Sf9 cell membrane vesicles assessed as uptake of [3H]-estradiol-17beta-D-glucuronide in presence of ATP and GSH measured after 20 mins by membrane vesicle transport assay
Chain of ATP-binding cassette sub-family C member 2 (Q92887 whole entry): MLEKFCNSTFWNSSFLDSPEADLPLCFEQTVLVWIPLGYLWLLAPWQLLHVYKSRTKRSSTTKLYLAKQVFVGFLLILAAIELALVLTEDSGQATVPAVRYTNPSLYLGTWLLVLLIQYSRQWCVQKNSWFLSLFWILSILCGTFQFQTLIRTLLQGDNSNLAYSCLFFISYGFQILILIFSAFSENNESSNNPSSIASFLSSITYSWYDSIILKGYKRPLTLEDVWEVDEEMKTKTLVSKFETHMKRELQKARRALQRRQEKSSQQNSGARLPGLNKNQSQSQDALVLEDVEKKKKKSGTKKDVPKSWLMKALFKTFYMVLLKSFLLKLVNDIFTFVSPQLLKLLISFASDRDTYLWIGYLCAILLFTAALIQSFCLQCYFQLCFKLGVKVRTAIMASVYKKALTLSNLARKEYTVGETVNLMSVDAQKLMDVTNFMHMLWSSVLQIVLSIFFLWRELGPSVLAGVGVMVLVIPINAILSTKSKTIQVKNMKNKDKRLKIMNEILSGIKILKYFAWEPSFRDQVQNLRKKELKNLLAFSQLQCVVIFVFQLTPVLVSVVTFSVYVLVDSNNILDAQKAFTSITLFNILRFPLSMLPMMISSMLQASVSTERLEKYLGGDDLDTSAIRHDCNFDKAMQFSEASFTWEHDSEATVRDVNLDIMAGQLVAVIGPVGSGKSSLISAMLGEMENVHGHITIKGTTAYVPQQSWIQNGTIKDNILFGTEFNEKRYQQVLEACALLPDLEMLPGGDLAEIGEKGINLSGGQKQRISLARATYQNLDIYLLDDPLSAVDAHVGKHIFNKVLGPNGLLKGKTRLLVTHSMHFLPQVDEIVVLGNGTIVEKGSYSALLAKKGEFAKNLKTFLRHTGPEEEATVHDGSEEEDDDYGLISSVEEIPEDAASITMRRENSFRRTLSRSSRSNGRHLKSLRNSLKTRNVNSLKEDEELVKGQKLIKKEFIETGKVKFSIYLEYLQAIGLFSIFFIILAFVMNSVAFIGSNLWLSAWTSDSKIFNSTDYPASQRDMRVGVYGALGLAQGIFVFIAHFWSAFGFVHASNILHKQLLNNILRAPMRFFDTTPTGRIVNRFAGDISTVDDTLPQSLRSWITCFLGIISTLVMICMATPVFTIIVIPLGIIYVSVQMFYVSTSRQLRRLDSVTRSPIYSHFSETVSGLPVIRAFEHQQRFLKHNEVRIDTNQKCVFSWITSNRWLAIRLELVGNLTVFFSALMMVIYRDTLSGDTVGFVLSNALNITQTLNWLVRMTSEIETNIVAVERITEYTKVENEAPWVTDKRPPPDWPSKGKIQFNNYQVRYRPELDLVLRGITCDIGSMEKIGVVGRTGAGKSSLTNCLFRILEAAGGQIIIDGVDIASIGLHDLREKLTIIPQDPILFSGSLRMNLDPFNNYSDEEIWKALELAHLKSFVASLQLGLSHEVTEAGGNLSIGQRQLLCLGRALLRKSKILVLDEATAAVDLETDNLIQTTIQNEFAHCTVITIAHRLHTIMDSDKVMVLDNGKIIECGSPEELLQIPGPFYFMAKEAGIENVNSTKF

[3] = target: T1, ATP-binding cassette sub-family C member 4 (Homo sapiens, UniProt O15439); assay: Inhibition of human MRP4 overexpressed in Sf9 cell membrane vesicles assessed as uptake of [3H]-estradiol-17beta-D-glucuronide in presence of ATP and GSH measured after 20 mins by membrane vesicle transport assay; format: ADME, cell-based
T1 sequence (O15439 whole entry): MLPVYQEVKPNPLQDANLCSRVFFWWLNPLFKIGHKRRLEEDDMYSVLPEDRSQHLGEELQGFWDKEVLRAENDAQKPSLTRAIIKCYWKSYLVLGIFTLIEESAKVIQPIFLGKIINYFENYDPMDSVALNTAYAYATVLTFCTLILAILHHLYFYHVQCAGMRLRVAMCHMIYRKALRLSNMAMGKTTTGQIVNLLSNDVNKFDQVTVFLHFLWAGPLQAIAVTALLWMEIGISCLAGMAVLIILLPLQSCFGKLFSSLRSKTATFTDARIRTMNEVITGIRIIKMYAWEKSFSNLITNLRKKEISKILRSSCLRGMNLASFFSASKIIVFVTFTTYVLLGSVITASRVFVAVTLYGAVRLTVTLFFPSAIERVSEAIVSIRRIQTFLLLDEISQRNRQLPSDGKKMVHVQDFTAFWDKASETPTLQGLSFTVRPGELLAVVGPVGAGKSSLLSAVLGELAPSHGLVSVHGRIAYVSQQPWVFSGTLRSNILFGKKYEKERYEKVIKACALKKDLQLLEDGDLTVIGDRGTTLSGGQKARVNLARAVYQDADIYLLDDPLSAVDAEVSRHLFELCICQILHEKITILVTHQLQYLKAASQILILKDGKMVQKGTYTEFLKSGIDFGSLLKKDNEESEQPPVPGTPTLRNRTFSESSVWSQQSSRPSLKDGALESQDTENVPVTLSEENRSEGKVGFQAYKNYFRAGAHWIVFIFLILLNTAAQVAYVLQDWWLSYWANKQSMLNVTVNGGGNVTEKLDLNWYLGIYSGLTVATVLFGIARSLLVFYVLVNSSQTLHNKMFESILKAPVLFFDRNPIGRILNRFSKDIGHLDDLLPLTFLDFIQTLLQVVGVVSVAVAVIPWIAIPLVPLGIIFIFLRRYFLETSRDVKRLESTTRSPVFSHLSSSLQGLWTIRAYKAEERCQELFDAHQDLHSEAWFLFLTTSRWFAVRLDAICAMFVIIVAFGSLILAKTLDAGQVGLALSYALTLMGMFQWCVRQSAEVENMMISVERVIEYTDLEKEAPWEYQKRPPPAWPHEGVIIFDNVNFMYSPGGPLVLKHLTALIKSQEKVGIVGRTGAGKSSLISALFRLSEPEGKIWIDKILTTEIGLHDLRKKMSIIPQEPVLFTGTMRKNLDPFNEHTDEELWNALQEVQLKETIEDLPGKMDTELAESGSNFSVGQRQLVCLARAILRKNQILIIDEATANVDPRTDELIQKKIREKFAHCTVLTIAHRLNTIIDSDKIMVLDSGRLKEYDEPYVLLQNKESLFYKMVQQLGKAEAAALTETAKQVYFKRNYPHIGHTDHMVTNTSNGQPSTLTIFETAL

[4] = target: ATP-binding cassette sub-family C member 3 (Homo sapiens, UniProt O15438); assay: Inhibition of human MRP3 overexpressed in Sf9 insect cell membrane vesicles assessed as uptake of [3H]-estradiol-17beta-D-glucuronide in presence of ATP and GSH measured after 10 mins by membrane vesicle transport assay; format: ADME, cell-based
Chain of ATP-binding cassette sub-family C member 3 (O15438 whole entry): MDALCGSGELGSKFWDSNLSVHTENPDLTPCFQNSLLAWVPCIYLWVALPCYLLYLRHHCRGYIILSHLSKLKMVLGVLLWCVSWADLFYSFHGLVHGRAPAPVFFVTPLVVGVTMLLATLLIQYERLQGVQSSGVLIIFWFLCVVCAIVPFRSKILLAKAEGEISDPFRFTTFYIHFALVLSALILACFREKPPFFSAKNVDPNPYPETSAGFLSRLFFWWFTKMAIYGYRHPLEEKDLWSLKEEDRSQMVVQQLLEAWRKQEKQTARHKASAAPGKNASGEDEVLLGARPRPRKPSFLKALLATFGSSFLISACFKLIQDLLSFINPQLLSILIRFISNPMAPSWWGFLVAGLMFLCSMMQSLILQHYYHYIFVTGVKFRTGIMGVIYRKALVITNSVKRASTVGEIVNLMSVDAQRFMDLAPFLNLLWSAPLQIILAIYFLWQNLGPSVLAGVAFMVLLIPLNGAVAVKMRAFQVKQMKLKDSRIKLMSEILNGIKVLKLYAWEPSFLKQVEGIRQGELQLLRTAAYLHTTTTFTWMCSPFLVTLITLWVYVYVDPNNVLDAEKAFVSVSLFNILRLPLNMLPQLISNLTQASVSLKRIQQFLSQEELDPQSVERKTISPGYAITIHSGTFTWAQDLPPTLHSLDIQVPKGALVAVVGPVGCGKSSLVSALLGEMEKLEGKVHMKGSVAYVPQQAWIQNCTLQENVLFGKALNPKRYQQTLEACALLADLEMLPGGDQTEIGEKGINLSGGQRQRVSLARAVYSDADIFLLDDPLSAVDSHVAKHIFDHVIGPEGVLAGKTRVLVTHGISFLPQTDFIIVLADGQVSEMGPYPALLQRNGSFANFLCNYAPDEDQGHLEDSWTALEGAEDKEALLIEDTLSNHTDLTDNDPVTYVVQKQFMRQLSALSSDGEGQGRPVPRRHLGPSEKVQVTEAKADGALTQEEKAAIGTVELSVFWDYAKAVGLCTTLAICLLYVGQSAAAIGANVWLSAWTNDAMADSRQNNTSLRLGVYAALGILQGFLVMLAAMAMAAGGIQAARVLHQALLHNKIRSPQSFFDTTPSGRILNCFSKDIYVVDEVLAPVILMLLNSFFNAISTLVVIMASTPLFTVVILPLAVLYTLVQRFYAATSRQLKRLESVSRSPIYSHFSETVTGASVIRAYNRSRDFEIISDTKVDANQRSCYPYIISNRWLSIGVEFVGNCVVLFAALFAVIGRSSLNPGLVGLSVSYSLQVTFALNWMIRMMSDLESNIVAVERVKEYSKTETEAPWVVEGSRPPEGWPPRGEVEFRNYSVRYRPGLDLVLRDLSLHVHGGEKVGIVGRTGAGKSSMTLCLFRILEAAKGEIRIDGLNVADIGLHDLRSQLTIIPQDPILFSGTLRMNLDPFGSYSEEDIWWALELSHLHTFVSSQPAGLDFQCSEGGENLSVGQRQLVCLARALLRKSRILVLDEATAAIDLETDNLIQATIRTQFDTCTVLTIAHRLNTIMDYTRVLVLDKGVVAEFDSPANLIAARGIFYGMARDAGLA

SMILES	IC50 [1]	IC50 [2]	IC50 [3]	IC50 [4]
CC(NC(C)(C)C)C(=O)c1cccc(Cl)c1 (stereo unspecified) [BUPROPION HYDROCHLORIDE]	> 133 µM	> 133 µM	> 133 µM	> 133 µM
CS(=O)(=O)OCCCCOS(C)(=O)=O [BUSULFAN]	> 133 µM	> 133 µM	> 133 µM	> 133 µM
Oc1ccc2c(c1)[C@@]13CCCC[C@@]1(O)[C@@H](C2)N(CC1CCC1)CC3 [BUTORPHANOL]	> 133 µM	> 133 µM	> 133 µM	> 133 µM
C=CCN1C[C@H](C(=O)N(CCCN(C)C)C(=O)NCC)C[C@@H]2c3cccc4[nH]cc(c34)C[C@H]21 [CABERGOLINE]	> 133 µM	> 133 µM	> 133 µM	> 133 µM
CC[C@@]1(O)C(=O)OCc2c1cc1n(c2=O)Cc2cc3ccccc3nc2-1 [CAMPTOTHECIN]	> 133 µM	> 133 µM	7.4 µM	> 133 µM
C[C@H](CS)C(=O)N1CCC[C@H]1C(=O)O [CAPTOPRIL]	> 133 µM	> 133 µM	> 133 µM	> 133 µM
NC(=O)N1c2ccccc2C=Cc2ccccc21 [CARBAMAZEPINE]	> 133 µM	> 133 µM	> 133 µM	> 133 µM
C[C@@](Cc1ccc(O)c(O)c1)(NN)C(=O)O [CARBIDOPA ANHYDROUS]	> 133 µM	> 133 µM	> 133 µM	> 133 µM
ClC(Cl)(Cl)Cl [CARBON TETRACHLORIDE]	> 133 µM	> 133 µM	> 133 µM	> 133 µM
O=NN(CCCl)C(=O)NCCCl [CARMUSTINE]	> 133 µM	> 133 µM	> 133 µM	> 133 µM
CC(C(=O)O)c1ccc2c(c1)[nH]c1ccc(Cl)cc12 (stereo unspecified) [CARPROFEN]	> 133 µM	> 133 µM	3 µM	> 133 µM
COc1ccccc1OCCNCC(O)COc1cccc2[nH]c3ccccc3c12 (stereo unspecified) [CARVEDILOL]	> 133 µM	> 133 µM	> 133 µM	> 133 µM
N[C@@H](C(=O)N[C@@H]1C(=O)N2C(C(=O)O)=C(Cl)CS[C@H]12)c1ccccc1 [CEFACLOR ANHYDROUS]	> 133 µM	> 133 µM	> 133 µM	> 133 µM
Cc1nnc(SCC2=C(C(=O)O)N3C(=O)[C@@H](NC(=O)Cn4cnnn4)[C@H]3SC2)s1 [CEFAZOLIN SODIUM]	> 133 µM	> 133 µM	54.2 µM	> 133 µM
C=CC1=C(C(=O)O)N2C(=O)[C@@H](NC(=O)/C(=N\OCC(=O)O)c3csc(N)n3)[C@H]2SC1 [CEFIXIME]	> 133 µM	89.4 µM	> 133 µM	> 133 µM
CO/N=C(\C(=O)N[C@@H]1C(=O)N2C(C(=O)O)=C(COC(C)=O)CS[C@H]12)c1csc(N)n1 [CEFOTAXIME SODIUM]	> 133 µM	> 133 µM	24 µM	> 133 µM
CO/N=C(\C(=O)N[C@@H]1C(=O)N2C(C(=O)OC(C)OC(C)=O)=C(COC(N)=O)CS[C@H]12)c1ccco1 (stereo partly specified) [CEFUROXIME AXETIL]	> 133 µM	> 133 µM	28 µM	> 133 µM
Cc1ccc(-c2cc(C(F)(F)F)nn2-c2ccc(S(N)(=O)=O)cc2)cc1 [CELECOXIB]	> 133 µM	> 133 µM	> 133 µM	> 133 µM
O=C(O)CCCc1ccc(N(CCCl)CCCl)cc1 [CHLORAMBUCIL]	> 133 µM	> 133 µM	> 133 µM	> 133 µM
CNC1=Nc2ccc(Cl)cc2C(c2ccccc2)=[N+]([O-])C1 [CHLORDIAZEPOXIDE]	44.1 µM	> 133 µM	> 133 µM	> 133 µM

SMILES	IC50 [1]	IC50 [2]	IC50 [3]	IC50 [4]
Clc1cccc(N2CCNCC2)c1 [CHLOROPHENYLPIPERAZINE]	> 133 µM	> 133 µM	> 133 µM	> 133 µM
CN(C)CCC(c1ccc(Cl)cc1)c1ccccn1 (stereo unspecified) [CHLORPHENIRAMINE]	> 133 µM	> 133 µM	> 133 µM	> 133 µM
CN(C)CCCN1c2ccccc2Sc2ccc(Cl)cc21 [CHLORPROMAZINE]	> 133 µM	> 133 µM	> 133 µM	> 133 µM
CCCNC(=O)NS(=O)(=O)c1ccc(Cl)cc1 [CHLORPROPAMIDE]	> 133 µM	> 133 µM	> 133 µM	> 133 µM
NS(=O)(=O)c1cc(C2(O)NC(=O)c3ccccc32)ccc1Cl (stereo unspecified) [CHLORTHALIDONE]	> 133 µM	> 133 µM	> 133 µM	> 133 µM
CC(C)C(=O)OCC(=O)[C@@]12O[C@H](C3CCCCC3)O[C@@H]1C[C@H]1[C@@H]3CCC4=CC(=O)C=C[C@]4(C)[C@H]3[C@@H](O)C[C@@]12C [CICLESONIDE]	> 133 µM	> 133 µM	> 133 µM	> 133 µM
Nc1ccn(C[C@@H](CO)OCP(=O)(O)O)c(=O)n1 [CIDOFOVIR]	> 133 µM	> 133 µM	> 133 µM	> 133 µM
c1ccc(C2(c3ccccc3)CC2C2=NCCN2)cc1 (stereo unspecified) [CIFENLINE]	> 133 µM	> 133 µM	> 133 µM	> 133 µM
O=C1CCc2cc(OCCCCc3nnnn3C3CCCCC3)ccc2N1 [CILOSTAZOL]	> 133 µM	> 133 µM	16.6 µM	> 133 µM
CN(C)CCCC1(c2ccc(F)cc2)OCc2cc(C#N)ccc21 (stereo unspecified) [CITALOPRAM]	> 133 µM	> 133 µM	> 133 µM	> 133 µM
Nc1nc(Cl)nc2c1ncn2[C@H]1C[C@H](O)[C@@H](CO)O1 [CLADRIBINE]	> 133 µM	> 133 µM	> 133 µM	> 133 µM
CC[C@H]1OC(=O)[C@H](C)[C@@H](O[C@H]2C[C@@](C)(OC)[C@@H](O)[C@H](C)O2)[C@H](C)[C@@H](O[C@@H]2O[C@H](C)C[C@H](N(C)C)[C@H]2O)[C@](C)(OC)C[C@@H](C)C(=O)[C@H](C)[C@@H](O)[C@]1(C)O [CLARITHROMYCIN]	> 133 µM	> 133 µM	> 133 µM	> 133 µM
Oc1c(I)cc(Cl)c2cccnc12 [CLIOQUINOL]	> 133 µM	> 133 µM	> 133 µM	> 133 µM
CN1C(=O)CC(=O)N(c2ccccc2)c2cc(Cl)ccc21 [CLOBAZAM]	> 133 µM	> 133 µM	> 133 µM	> 133 µM
Nc1nc(Cl)nc2c1ncn2[C@@H]1O[C@H](CO)[C@@H](O)[C@@H]1F [CLOFARABINE]	> 133 µM	> 133 µM	> 133 µM	> 133 µM
CCN(CC)CCOc1ccc(C(=C(Cl)c2ccccc2)c2ccccc2)cc1 [CLOMIPHENE]	> 133 µM	> 133 µM	> 133 µM	> 133 µM
C[C@@H]1CCC[C@H](C)N1NC(=O)c1ccc(Cl)c(S(N)(=O)=O)c1 [CLOPAMIDE]	> 133 µM	> 133 µM	> 133 µM	> 133 µM
COC(=O)[C@H](c1ccccc1Cl)N1CCc2sccc2C1 [CLOPIDOGREL BISULFATE]	72 µM	> 133 µM	> 133 µM	> 133 µM
O=C(O)CCC/C=C\CC1C(O)CC(O)C1/C=C/C(O)COc1cccc(Cl)c1 (stereo unspecified) [CLOPROSTENOL SODIUM]	> 133 µM	> 133 µM	1.9 µM	> 133 µM
